Source: patent publication US11420936B2, “Hypoxia inducible factor-2(alpha) inhibitors and their use in the treatment of diseases” (priority 2020, dated 2022)
Where two headings read alike, the source gives them in different places.

Legend:
[1] = molecular target: HIF-2α (Homo sapiens (Human), UniProt Q99814); experiment: cell-based; assay type: cell-based
Description: The ability of the disclosed compounds to inhibit HIF-2α was measured by determining VEGF expression in 786-O cells. About 7500 786-O cells were seeded into each well of a 96-well, white, clear bottom plate (07-200-566, Fisher Scientific) with 200 ul growth medium. Four hours later, compounds were dispensed into wells by Tecan D300e digital dispenser with starting concentration of 10 uM and ½ log of dilution down to 1 nM as final concentration. Each concentration of treatment was performed in duplicate. About 20 hours later, medium was removed and fresh medium was added, followed by compounds treatment as described above. 24 hours later, cell culture medium was collected to determine VEGF concentration using an ELISA kit (R&D systems, cat #DVE00) following the manufacturer's instruction.
The EC50 is calculated by GraphPad Prism using the dose-response-inhibition (four parameter) equation. The plate with cells was then subjected to CellTiter-Glo luminescence cell viability assay (Promega) to determine the effect of these compounds on cell numbers after the above treatment.

[2] = molecular target: HIF-2α/ARNT dimerization (Homo sapiens (Human), UniProt Q99814); experiment: Co-immunoprecipitation assay for inhibition of HIF-2α and ARNT dimerization in PASMC and HPAEC; assay type: cell-based
Chain of HIF-2α/ARNT dimerization (Q99814 whole entry): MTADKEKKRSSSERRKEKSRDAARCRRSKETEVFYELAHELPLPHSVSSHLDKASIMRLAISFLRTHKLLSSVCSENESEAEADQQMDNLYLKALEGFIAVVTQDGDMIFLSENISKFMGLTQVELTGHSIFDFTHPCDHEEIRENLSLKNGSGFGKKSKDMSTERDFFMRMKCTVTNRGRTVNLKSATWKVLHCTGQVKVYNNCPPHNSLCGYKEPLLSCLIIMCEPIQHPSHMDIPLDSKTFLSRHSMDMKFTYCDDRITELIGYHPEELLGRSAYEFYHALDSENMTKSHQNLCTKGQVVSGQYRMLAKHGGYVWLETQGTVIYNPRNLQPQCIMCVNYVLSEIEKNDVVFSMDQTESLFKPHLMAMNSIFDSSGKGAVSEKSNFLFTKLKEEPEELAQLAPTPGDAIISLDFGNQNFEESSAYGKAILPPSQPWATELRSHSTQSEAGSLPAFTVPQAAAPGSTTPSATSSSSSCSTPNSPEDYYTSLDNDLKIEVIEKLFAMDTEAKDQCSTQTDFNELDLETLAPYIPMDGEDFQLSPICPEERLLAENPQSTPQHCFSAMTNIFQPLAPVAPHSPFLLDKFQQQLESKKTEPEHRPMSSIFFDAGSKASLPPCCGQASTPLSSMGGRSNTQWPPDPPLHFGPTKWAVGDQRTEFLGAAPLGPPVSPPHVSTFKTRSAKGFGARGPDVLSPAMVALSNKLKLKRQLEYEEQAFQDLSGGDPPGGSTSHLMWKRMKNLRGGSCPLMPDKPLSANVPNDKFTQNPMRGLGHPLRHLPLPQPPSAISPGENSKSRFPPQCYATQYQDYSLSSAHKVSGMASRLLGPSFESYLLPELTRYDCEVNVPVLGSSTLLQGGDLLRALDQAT
Description: FIG. 1 provides results of a co-immunoprecipitation assay for measuring inhibition of HIF-2α and ARNT dimerization in Primary Pulmonary Artery Smooth Muscle Cells (PASMC) and Human Pulmonary Artery Endothelial Cells (HPAEC).
Primary Pulmonary Artery Smooth Muscle Cells (PASMC, ATCC #PCS-100-023) were cultured in Vascular Cell Basal Medium (ATCC #PCS-100-030) supplemented with Vascular Smooth Muscle Cell Growth Kit (ATCC #PCS-100-042). Primary Pulmonary Artery Endothelial Cells (HPAEC, ATCC #PCS-100-022) were cultured in Vascular Cell Basal Medium (ATCC #PCS-100-030) supplemented with Endothelial Cell Growth Kit-BBE (ATCC #PCS-100-040). 0.5×10^6 cells were seeded into 6-well cell culture plates (Corning #3736) in 2 mL of media and cultured in a 37° C. cell culture incubator with atmospheric levels of oxygen and 5% CO2 overnight. The following day, cells were cultured in normoxia condition (atmospheric levels of oxygen and 5% CO2) or in hypoxia condition (1% O2 and 5% CO2) and treated with dimethyl sulfoxide (DMSO) or Compound 24a at 0.001, 0.01, 0.1, and 1 μM for 24 h.
After treatment, cells were washed with ice-cold PBS (containing compounds as in treatment step). […] Supernatant (cell lysate) was transferred to a new tube and protein concentration was measured by BCA protein assay. […]
Cell lysates were also analyzed by immunoblot (Western analysis). […]

[3] = inhibition of VEGF expression in 786-O cells, ELISA of culture medium, read-out: EC50

Chain of HIF-2α (Q99814 whole entry): as above

Row | Compound | EC50 [1, 3] | further results
1 | C=C1CC2(O)c3c(ccc(Oc4cc(F)cc(C#N)c4)c31)C(F)(F)C2(F)F (stereo not shown) [Compound 1, 3-fluoro-5-((3,3,4,4-tetrafluoro-2a-hydroxy-1-methylene-2,2a,3,4-tetrahydro-1H-cyclopenta[cd]inden-7-yl)oxy)benzonitrile] | 13 nM | –
2 | N#Cc1cc(F)cc(Oc2ccc3c4c2C(F)CC4(O)C(F)(F)C3(F)F)c1 (stereo not shown) [Compound 4, 3-fluoro-5-((1,3,3,4,4-pentafluoro-2a-hydroxy-2,2a,3,4-tetrahydro-1H-cyclopenta[cd]inden-7-yl)oxy)benzonitrile] | 10 nM | –
3 | N#Cc1cc(F)cc(Oc2ccc3c4c2[C@@H](F)C[C@]4(O)C(F)(F)C3(F)F)c1 [Compound 5, 3-fluoro-5-(((1S,2aR)-1,3,3,4,4-pentafluoro-2a-hydroxy-2,2a,3,4-tetrahydro-1H-cyclopenta[cd]inden-7-yl)oxy)benzonitrile] | 6 nM | –
4 | N#Cc1cc(F)cc(Oc2ccc3c4c2[C@H](F)C[C@]4(O)C(F)(F)C3(F)F)c1 [Compound 7, 3-fluoro-5-(((1R,2aR)-1,3,3,4,4-pentafluoro-2a-hydroxy-2,2a,3,4-tetrahydro-1H-cyclopenta[cd]inden-7-yl)oxy)benzonitrile] | 2100 nM | –
5 | OC12CC(F)c3c(Oc4cncc(F)c4)ccc(c31)C(F)(F)C2(F)F (stereo not shown) [Compound 8, 1,3,3,4,4-pentafluoro-7-((5-fluoropyridin-3-yl)oxy)-1,2,3,4-tetrahydro-2aH-cyclopenta[cd]inden-2a-ol] | 320 nM | –
6 | N#Cc1cc(F)cc(Oc2ccc3c4c2C2(CC2)CC4(O)C(F)(F)C3(F)F)c1 (stereo not shown) [Compound 9, 3-fluoro-5-((3,3,4,4-tetrafluoro-2a-hydroxy-2,2a,3,4-tetrahydrospiro[cyclopenta[cd]indene-1,1′-cyclopropan]-7-yl)oxy)benzonitrile] | 170 nM | –
7 | CC1CC2(O)c3c(ccc(Oc4cc(F)cc(C#N)c4)c31)C(F)(F)C2(F)F (stereo not shown) [Compound 10, 3-fluoro-5-((3,3,4,4-tetrafluoro-2a-hydroxy-1-methyl-2,2a,3,4-tetrahydro-1H-cyclopenta[cd]inden-7-yl)oxy)benzonitrile] | 410 nM | –
8 | CC1(O)CC2(O)c3c(ccc(Oc4cc(F)cc(C#N)c4)c31)C(F)(F)C2(F)F (stereo not shown) [Compound 11, 3-fluoro-5-((3,3,4,4-tetrafluoro-1,2a-dihydroxy-1-methyl-2,2a,3,4-tetrahydro-1H-cyclopenta[cd]inden-7-yl)oxy)benzonitrile] | > 5000 nM | –
9 | CC1(F)CC2(O)c3c(ccc(Oc4cc(F)cc(C#N)c4)c31)C(F)(F)C2(F)F (stereo not shown) [Compound 12, 3-fluoro-5-((1,3,3,4,4-pentafluoro-2a-hydroxy-1-methyl-2,2a,3,4-tetrahydro-1H-cyclopenta[cd]inden-7-yl)oxy)benzonitrile] | 100 nM | –
10 | N#Cc1cc(F)cc(Oc2ccc3c4c2CCC4(O)C(F)(F)C3(F)F)c1 (stereo not shown) [Compound 13, 3-fluoro-5-((3,3,4,4-tetrafluoro-2a-hydroxy-2,2a,3,4-tetrahydro-1H-cyclopenta[cd]inden-7-yl)oxy)benzonitrile] | 330 nM | –
11 | N#Cc1cc(F)cc(Oc2ccc3c4c2C(F)CC4(N)C(F)(F)C3(F)F)c1 (stereo not shown) [Compound 14, 3-((2a-amino-1,3,3,4,4-pentafluoro-2,2a,3,4-tetrahydro-1H-cyclopenta[cd]inden-7-yl)oxy)-5-fluorobenzonitrile] | 630 nM | –
12 | N#Cc1cc(F)cc(Oc2ccc3c4c2C(F)(F)CC4(F)C(F)(F)C3(F)F)c1 (stereo not shown) [Compound 15, 3-fluoro-5-((1,1,2a,3,3,4,4-heptafluoro-2,2a,3,4-tetrahydro-1H-cyclopenta[cd]inden-7-yl)oxy)benzonitrile] | > 5000 nM | –
13 | N#Cc1cc(F)cc(Oc2ccc3c4c2CC(F)(F)C4(O)CC3F)c1 (stereo not shown) [Compound 19, 3-fluoro-5-((1,3,3-trifluoro-2a-hydroxy-2,2a,3,4-tetrahydro-1H-cyclopenta[cd]inden-5-yl)oxy)benzonitrile] | 4100 nM | –
14 | [2H]C1([2H])[C@@]2(O)c3c(ccc(Oc4cc(F)cc(C#N)c4)c3[C@@]1([2H])F)C(F)(F)C2(F)F [Compound 21, 3-fluoro-5-(((1S,2aR)-1,3,3,4,4-pentafluoro-2a-hydroxy-2,2a,3,4-tetrahydro-1H-cyclopenta[cd]inden-7-yl-1,2,2-d3)oxy)benzonitrile] | – | EC50 [1]: 6 nM
15 | C=C1C[C@@]2(O)c3c(ccc(Oc4cc(F)cc(C#N)c4)c31)C(F)(F)C2(F)F [Compound 23a, (R)-3-fluoro-5-((3,3,4,4-tetrafluoro-2a-hydroxy-1-methylene-2,2a,3,4-tetrahydro-1H-cyclopenta[cd]inden-7-yl)oxy)benzonitrile] | 7 nM | –
16 | N#Cc1cc(F)cc(Oc2ccc3c4c2[C@@H](F)[C@@H](F)[C@]4(O)C(F)(F)C3(F)F)c1 [Compound 24a, 3-fluoro-5-(((1R,2S,2aS)-1,2,3,3,4,4-hexafluoro-2a-hydroxy-2,2a,3,4-tetrahydro-1H-cyclopenta[cd]inden-7-yl)oxy)benzonitrile] | 2 nM | Disruption of HIF-2α/ARNT dimerization at 0.01 μM ([2]; 0.01 μM, PASMC/HPAEC under hypoxia condition (1% O2)): efficiently disrupt the HIF-2α/ARNT dimerization; Disruption of HIF-2α/ARNT dimerization (HIF-2α protein co-precipitated with ARNT) ([2]; PASMC and HPAEC, 0.001, 0.01, 0.1 and 1 μM for 24 h, FIG. 1): reduced in the lysate of cells treated with Compound 24a in a dose-dependent manner
17 | N#Cc1cc(F)cc(Oc2ccc3c4c2[C@@H](F)[C@H](F)[C@]4(O)C(F)(F)C3(F)F)c1 [Compound 24b, 3-fluoro-5-(((1R,2R,2aS)-1,2,3,3,4,4-hexafluoro-2a-hydroxy-2,2a,3,4-tetrahydro-1H-cyclopenta[cd]inden-7-yl)oxy)benzonitrile] | 11 nM | –
